From patent US11312722B2, “Hsp90 inhibitors and uses thereof” (TRUSTEES OF BOSTON UNIVERSITY, priority 2019, dated 2022)

What was measured:
in vitro = settings: both, CD-1, mouse; for half-life: microsomes
[1] = mouse liver microsomes; for % remaining at 15 min (NADPH-free): NADPH-free control; for % remaining at 15 min / % remaining at 60 min: with NADPH
C. neoformans Hsp90 NBD = C. neoformans Hsp90 NBD (Cryptococcus neoformans, UniProt J9VVA4); assay: Protein thermal shift assay, C. neoformans Hsp90 NBD; type: binding; settings: equimolar protein and ligand (10 μM)
Description: […]. Using recombinant proteins, assay-independent nanomolar inhibitory constants (Ki) were defined for these compounds. Binding of the compounds to their relevant NBD by thermal shift denaturation assays was also confirmed. Thermal shift assays were performed under saturating ligand conditions, i.e. equimolar concentrations (10 μM) of protein and ligand. As a result, they can provide only qualitative evidence of target binding, but not a quantitative measurement of ligand affinity. […] […]. C. neoformans or C. albicans Hsp90 NBD was combined with equimolar concentrations of the indicated bioactive inhibitors (10 μM) or DMSO control, in technical triplicates. The protein was heated from 25 to 98.6° C. at 0.2° C./5 s in the presence of Sypro Orange dye. All compounds induce an increase in melting temperature relative to the DMSO control, reported as ΔTm.
Protein thermal shift assays. Thermal melting curves were determined using a Protein Thermal Shift Kit (ThermoFisher #4462263), employing a CFX384 Real-Time PCR System (Bio-Rad, C1000 Touch Thermal Cycler). Reactions were performed in a final volume of 10 μL, and contained purified C. albicans or C. neoformans Hsp90 NBD diluted to 250 μg/mL in Buffer HBS-P (GE Healthcare Life Sciences, 0.01 M HEPES pH 7.4, 0.15 M NaCl, 0.005% v/v Surfactant P20) with 10 μM synthetic analog or DMSO control, and 1× Sypro Orange dye solution. Samples were prepared in triplicate in 384-well white plates (Bio-Rad; HSP3805). The instrument was set to melt curve, step 1 (25° C., 2 min) and step 2 (ramp to 98.6° C., increasing 0.2° C. per 5 s cycle). The inflection point of each curve is defined as the protein melting temperature (Tm). Temperature shift, ΔTm, was recorded as the difference between the Tm of the fungal Hsp90 NBD with compound minus Tm of the protein without compound.

[2] = target: Hsp90 (C. albicans whole cell lysate) (Candida albicans (strain SC5314 / ATCC MYA-2876) (Yeast), UniProt P46598); assay: biochemical; type: binding; settings: for C. alb Active (biochemical): Yes/No call; for EC50: read-out: C. alb EC50
Description: (§1) All analogs were assessed for Hsp90 binding affinity using a fluorescence polarization (FP)-based equilibrium competition assay in fungal and human whole cell lysates. […] Using lysates, the relative potency and selectivity for fungal Hsp90 was measured versus the entire ensemble of human Hsp90 isoforms in microplate format using small amounts of test materials. […] Thermal shift assays were performed under saturating ligand conditions, i.e. equimolar concentrations (10 μM) of protein and ligand. As a result, they provided qualitative evidence of target binding, but not a quantitative measurement of ligand affinity. For quantitation, a ligand dissociation constant (Ki) for key compounds was also determined using purified NBDs in FP assays and KD measurements were made by surface plasmon resonance (SPR) using a Biacore instrument. Finally, all analogs were assessed for whole cell antifungal activity against the pathogens C. albicans and C. neoformans.
(§2) FP assays. Whole cell lysates were prepared for FP assays as described previously. Total protein concentration of human and yeast lysates was determined by Bradford assay. […] Serial dilutions of test Hsp90 inhibitors were then assayed under these same conditions to monitor loss of fluorescence polarization as an indicator of probe displacement from Hsp90. […] Titrations of test compound in 25 μL of binding buffer (supplemented with 0.1 mg/mL bovine gamma globulin), were mixed with an equal volume of freshly prepared whole-cell lysate spiked with Cy3-GdA (0.1 nM). Plates were incubated at room temperature for 4.5 h to achieve equilibrium binding for the geldanamycin-based probe. […] Non-linear 4-parameter curve fitting of raw displacement data was performed in GraphPad Prism 5.0 to determine EC50 values as a measure of relative Hsp90-binding affinity. Results were normalized to the value determined for GdA in lysate of each cell type.
(§3) Statistical methods. […] In calculating the error of selectivity determinations, the fractional error of measurements in each species was summed to yield a composite error for the derived ratio.

[3] = tested on: C. neoformans (Strain H99); assay: Antifungal sensitivity testing (MIC), C. neoformans H99; type: cell-based; settings: for MIC80 / MIC90: Cryptococcus neoformans; for MIC80: read-out: C. neo MIC80; for MIC90: read-out: C. neo MIC90; for C. neo Active (cells): Yes/No call
Description: Color scale bar: no growth inhibition (green) to complete inhibition (black). Each shaded box represents the mean of technical duplicates. The experiment was repeated as an independent biological replicate to confirm results.
Minimum inhibitory concentration (MIC) value for compounds against C. neoformans (Strain H99) was determined in dose-response format, in technical duplicate. Experiments were conducted in RPMI medium at 37° C. for 48 h. Relative viable cell number was measured by standard dye reduction (resazurin) assay.
Yeast strains and culture conditions. Strains used in this study were C. albicans CaCi2 (clinical isolate 2), [58] SC5314, [59] and C. neoformans H99. […] Active cultures were maintained on solid (2% agar) yeast extract peptone (YPD, 1% yeast extract, 2% bactopeptone, 2% glucose) at 4° C. for no more than one month.
Antifungal sensitivity testing. […] Each compound was tested in duplicate in at least two independent experiments. […] Plates were photographed after 24 h of incubation at 30° C.

[4] = target: Hsp90 (C. neoformans whole cell lysate) (Cryptococcus neoformans, UniProt J9VVA4); type: binding; settings: for EC50: read-out: C. neo EC50; for C. neo Active (biochemical): Yes/No call
Description: as §1, §2, §3

[5] = tested on: Hsp90 (C. neoformans whole cell lysate); type: binding; settings: for C. neo Selectivity (FS): C. neo FS calculated using EC50
Description: as §1, §2, §3

[6] = tested on: Hsp90 (C. albicans whole cell lysate); assay: biochemical; type: binding; settings: for C. alb Selective: Yes/No call
Description: as §1, §2, §3

Sequence of Hsp90 (C. neoformans whole cell lysate) (Cryptococcus neoformans, UniProt J9VVA4) (J9VVA4 1-699): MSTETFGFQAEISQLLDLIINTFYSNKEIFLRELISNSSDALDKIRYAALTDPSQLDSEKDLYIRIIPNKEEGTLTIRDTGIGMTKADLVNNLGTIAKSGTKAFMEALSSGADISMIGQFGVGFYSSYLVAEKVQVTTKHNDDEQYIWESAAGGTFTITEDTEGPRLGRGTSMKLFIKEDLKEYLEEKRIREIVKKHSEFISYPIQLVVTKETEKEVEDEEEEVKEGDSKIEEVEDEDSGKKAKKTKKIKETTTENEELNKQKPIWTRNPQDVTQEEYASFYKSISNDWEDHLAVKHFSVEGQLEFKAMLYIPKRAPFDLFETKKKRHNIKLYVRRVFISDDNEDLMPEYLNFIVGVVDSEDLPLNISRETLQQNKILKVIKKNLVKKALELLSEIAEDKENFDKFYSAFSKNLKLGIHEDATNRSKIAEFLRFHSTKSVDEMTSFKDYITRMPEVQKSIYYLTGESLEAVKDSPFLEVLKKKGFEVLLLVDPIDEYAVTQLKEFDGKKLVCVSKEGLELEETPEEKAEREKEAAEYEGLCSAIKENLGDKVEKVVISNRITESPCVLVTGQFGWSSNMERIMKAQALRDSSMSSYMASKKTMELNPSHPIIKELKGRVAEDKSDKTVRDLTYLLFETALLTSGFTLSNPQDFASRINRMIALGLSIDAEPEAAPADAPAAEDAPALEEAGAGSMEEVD
Sequence of C. neoformans Hsp90 NBD (J9VVA4 1-699): as above

Structure (SMILES) | C. alb Active (biochemical) [2] | MIC80 [3] [µM] | MIC90 [3] [µM] | EC50 [4] [nM] | C. neo Selectivity (FS) [5] | C. alb Selectivity (FS) [6] | C. alb Selective [6] | EC50 [2] [nM] | C. neo MIC80 [3] [µM] | C. neo MIC90 [3] [µM] | also measured
Cn1nc(C2CCCCC2)cc1Nc1cc(O)cc(O)c1C(=O)N1Cc2cn[nH]c2C1 [Compound 105, 5-((3-Cyclohexyl-1-methyl-1H-pyrazol-5-yl)amino)-4-(1H,4H,5H,6H-pyrrolo[3,4-c]pyrazole-5-carbonyl)benzene-1,3-diol] |  |  |  |  |  |  |  |  |  |  | CLint scaled at 1 μM (in vitro; liver microsomes): 1990 mL/min/kg; half-life at 1 μM (in vitro; liver microsomes): 2.7 min; % remaining at 15 min (NADPH-free) [1]: 103.6%; % remaining at 15 min [1]: 2.3%; % remaining at 60 min [1]: 0%
COc1ccc(Cn2nc(C(C)(C)C)cc2Nc2cc(O)cc(O)c2C(=O)N2Cc3ccccc3C2)cc1 [Compound 49, (2-((3-(tert-Butyl)-1-(4-methoxybenzyl)-1H-pyrazol-5-yl)amino)-4,6-dihydroxyphenyl)(isoindolin-2-yl)methanone] |  |  |  |  |  |  |  |  |  |  | C. neoformans NBD ΔTm (C. neoformans Hsp90 NBD): 14 °C
CC(C)c1ccc(Cn2nccc2Nc2cc(O)cc(O)c2C(=O)N2Cc3ccccc3C2)cc1 [Compound 83, (2,4-Dihydroxy-6-((1-(4-isopropylbenzyl)-1H-pyrazol-5-yl)amino)phenyl)(isoindolin-2-yl)methanone] | Yes | > 25 | > 25 |  |  |  |  |  |  |  | CLint scaled at 1 μM (in vitro; liver microsomes): 1770 mL/min/kg; half-life (in vitro): 3.1 min; % remaining at 15 min (NADPH-free) [1]: 109.1%; % remaining at 15 min [1]: 3.4%; % remaining at 60 min [1]: 1.8%
Cc1nn(-c2cccc(C(F)(F)F)c2)c(C)c1Nc1cc(O)cc(O)c1C(=O)N1Cc2ccccc2C1 [ACSM01494, (2-((3,5-Dimethyl-1-(3-(trifluoromethyl)phenyl)-1H-pyrazol-4-yl)amino)-4,6-dihydroxyphenyl)(isoindolin-2-yl)methanone] | Yes | > 25 | > 25 | 30 | 97.7 | 1.8 | No | 1590 |  |  | 
Cn1nc(-c2ccc(C(C)(C)C)cc2)cc1Nc1cc(O)cc(O)c1C(=O)N1Cc2ccccc2C1 [Compound 127, 5-((3-(4-tert-Butylphenyl)-1-methyl-1H-pyrazol-5-yl)amino)-4-(2,3-dihydro-1H-isoindole-2-carbonyl)benzene-1,3-diol] |  |  |  |  |  |  |  |  |  |  | C. neoformans NBD ΔTm (C. neoformans Hsp90 NBD): 0 °C
COc1ccc(Cn2nc(-c3ccccc3)cc2Nc2cc(O)cc(O)c2C(=O)N2Cc3ccncc3C2)cc1 [BUCMD00433] | Yes |  |  | 75 | 13 | 31 | Yes | 11 | >25 | >25 | C. neo Active (biochemical) [4]: Yes; C. neo selective ([5]; Yes/No call): Yes; C. neo Active (cells) [3]: No
Cn1nccc1Nc1cc(O)cc(O)c1C(=O)N1CC2CC2C1 (stereo not shown) [ACSM01301] | No |  |  | 2400 | 5 |  | No | > 10000 | >25 | >25 | 
CC(C)c1cc(Nc2cc(O)cc(O)c2C(=O)N2Cc3ccccc3C2)n(C)n1 [Compound 100, 4-(2,3-Dihydro-1H-isoindole-2-carbonyl)-5-((1-methyl-3-(propan-2-yl)-1H-pyrazol-5-yl)amino)benzene-1,3-diol] |  |  |  |  |  |  |  |  |  |  | C. neoformans NBD ΔTm (C. neoformans Hsp90 NBD): 11 °C
COc1cccc(-c2cc(Nc3cc(O)cc(O)c3C(=O)N3Cc4ccc(N5CCN(C)CC5)cc4C3)n(C)n2)c1 [ACSM01375] | No |  |  | 1240 | 9.6 |  | No | > 10000 | >25 | >25 | 
Cn1nc(-c2ccc(C(C)(C)C)cc2)cc1Nc1cc(O)cc(O)c1C(=O)N1Cc2cn[nH]c2C1 [Compound 129, 5-((3-(4-tert-Butylphenyl)-1-methyl-1H-pyrazol-5-yl)amino)-4-(1H,4H,5H,6H-pyrrolo[3,4-c]pyrazole-5-carbonyl)benzene-1,3-diol] |  | > 25 | > 25 |  |  |  |  |  |  |  | C. neo Active (biochemical) [4]: Yes; CLint scaled at 1 μM (in vitro; liver microsomes): 847 mL/min/kg; half-life (in vitro): 6.4 min; % remaining at 15 min (NADPH-free) [1]: 97.9%; % remaining at 15 min [1]: 21.1%; % remaining at 60 min [1]: 0.5%; C. neo Active (cells) [3]: No
COc1ccccc1-n1nc(C)c(Nc2cc(O)cc(O)c2C(=O)N2Cc3ccccc3C2)c1C [ACSM01493, (2,4-Dihydroxy-6-((1-(2-methoxyphenyl)-3,5-dimethyl-1H-pyrazol-4-yl)amino)phenyl)(isoindolin-2-yl)methanone] | Yes | > 25 | > 25 | 191 | 7.2 | 1.2 | No | 1060 |  |  | 
Cc1cccc(-c2cc(Nc3cc(O)cc(O)c3C(=O)N3Cc4cn[nH]c4C3)n(C)n2)c1 [Compound 111, 5-((1-Methyl-3-(3-methylphenyl)-1H-pyrazol-5-yl)amino)-4-(1H,4H,5H,6H-pyrrolo[3,4-c]pyrazole-5-carbonyl)benzene-1,3-diol] | Yes | > 25 | > 25 |  |  |  |  |  |  |  | CLint scaled at 1 μM (in vitro; liver microsomes): 582 mL/min/kg; half-life (in vitro): 9.4 min; % remaining at 15 min (NADPH-free) [1]: 115.3%; % remaining at 15 min [1]: 20.2%; % remaining at 60 min [1]: 1.8%
O=C(c1c(O)cc(O)cc1Nc1cc(-c2ccccc2)nn1-c1ccccc1)N1Cc2ccccc2C1 [ACSM01305] | Yes |  |  | 577 | 8.1 | 0.9 | No | 1890 | 6.25 | 3 | 
Cn1nc(-c2ccccc2C(F)(F)F)cc1Nc1cc(O)cc(O)c1C(=O)N1Cc2ccncc2C1 [ACSM01491] | Yes |  |  | 47 | 62.2 | 3.9 | No | 724 | >25 | >25 | 
Cc1cccc(-c2cc(Nc3cc(O)cc(O)c3C(=O)N3Cc4ccc(N5CCOCC5)cc4C3)n(C)n2)c1 [ACSM01280] | No |  |  | 2000 | 6 |  | No | > 10000 | >25 | >25 | 
